According to BindingDB's records for doi:10.1016/0014-5793(93)80368-5 (University of Heidelberg Zmbh, 1993):

Biological target: 5-hydroxytryptamine receptor 5B (Rattus norvegicus, UniProt P35365)
Sequence (P35365 whole entry): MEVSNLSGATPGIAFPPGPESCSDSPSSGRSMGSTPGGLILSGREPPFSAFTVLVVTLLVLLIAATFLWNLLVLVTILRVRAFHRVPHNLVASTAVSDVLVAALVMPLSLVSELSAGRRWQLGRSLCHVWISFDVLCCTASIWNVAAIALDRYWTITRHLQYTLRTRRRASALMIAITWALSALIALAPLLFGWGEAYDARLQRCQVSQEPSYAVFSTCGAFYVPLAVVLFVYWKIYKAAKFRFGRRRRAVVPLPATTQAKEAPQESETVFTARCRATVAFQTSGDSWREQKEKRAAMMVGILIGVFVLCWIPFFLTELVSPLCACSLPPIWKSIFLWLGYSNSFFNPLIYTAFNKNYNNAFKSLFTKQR

| Structure (SMILES) | Ki [nM] |
| --- | --- |
| CCCN(CCC)C1CCc2cccc(O)c2C1 (stereo not given) | 46 |
| CC[C@@H](CO)NC(=O)[C@@H]1C=C2c3cccc4c3c(cn4C)C[C@H]2N(C)C1 | 40.7 |
| NCCc1c[nH]c2ccc(OCC(=O)NCC(=O)N[C@@H](Cc3ccc(O)cc3)C(N)=O)cc12 | 582 |
| O=C(c1ccc(F)cc1)C1CCN(CCn2c(=O)[nH]c3ccccc3c2=O)CC1 [3-(2-{4-[(4-fluorophenyl)carbonyl]piperidin-1-yl}ethyl)-1,2,3,4-tetrahydroquinazoline-2,4-dione] | 1000 |
| CN1CCC(=C2c3ccccc3C=Cc3ccccc32)CC1 [5-(1-methylpiperidylidene-4)-5H-dibenzo(a,d)cyclopheptene] | 117 |
| CN1CC(C(=O)N[C@]2(C)O[C@@]3(O)C4CCCN4C(=O)[C@H](Cc4ccccc4)N3C2=O)CC2c3cccc4[nH]cc(c34)CC21 (stereo partly drawn) [7-Methyl-4,6,6a,7,8,9,10,10a-octahydro-indolo[4,3-fg]quinoline-9-carboxylic acid ((2R,5S,10bS)-5-benzyl-10b-hydroxy-2-methyl-3,6-dioxo-octahydro-oxazolo[3,2-a]pyrrolo[2,1-c]pyrazin-2-yl)-amide] | 31 |
| O=C(CCCN1CCC2(CC1)C(=O)NCN2c1ccccc1)c1ccc(F)cc1 [8-[4-(4-fluorophenyl)-4-oxidanylidene-butyl]-1-phenyl-1,3,8-triazaspiro[4.5]decan-4-one] | 1000 |
| CCN(CC)C(=O)[C@@H]1C=C2c3cccc4[nH]cc(c34)C[C@H]2N(C)C1 [(4R,7R)-N,N-diethyl-6-methyl-6,11-diazatetracyclo[7.6.1.0^{2,7}.0^{12,16}]hexadeca-1(16),2,9,12,14-pentaene-4-carboxamide] | 3.2 |
| CC(C)NCC(O)COc1cccc2[nH]ccc12 (stereo not given) [LB-46] | 1000 |
| CNS(=O)(=O)Cc1ccc2[nH]cc(CCN(C)C)c2c1 [Sumax] | 807 |
